# Results reported in US20080145313A1, “Compositions and Methods for the Treatment and Prevention of Neoplastic Disorders” (Genesis Research & Development Corporation Limited, priority 2006, published 2008).
# Tests used:
# [1] = system: target transcript mRNA in A549 cells; test: Level of mRNA of target transcript in A549 cells by quantitative RT-PCR (Tables 12 and 13); type: cell-based, human; settings: 24 h post-transfection
# How it was run: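 A549 cells were transfected with siRNA at 0.1, 1.0 and 10 nM. RNA was extracted 24 h later, reverse-transcribed with random primers, and target mRNA quantified by SYBR Green qRT-PCR. Values were normalised to housekeeping genes HPRT and Lamin.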
# HCT-15 cells = test: Effect of MDR1 knockdown on drug resistance of HCT-15 cells; type: cell-based; settings: 10 nM siRNA; drug 72 h; compared with control siRNA
# Experimental: HCT-15 cells, which express high endogenous levels of MDR1, were reverse transfected with MDR1-specific (SEQ ID NO: 4976 (DNA), and SEQ ID NO: 5271 (RNA)) or control siRNAs (SEQ ID NO: 4804 (DNA), and SEQ ID NO: 5301 (RNA)) at a final concentration of 10 nM. Lipofectamine-siRNA complexes were made by adding 0.3 μl Lipofectamine RNAiMAX in 10 μl RPMI to an equivalent volume of medium containing siRNA, such that the final siRNA concentration would be 10 nM. This mixture was incubated at room temperature for 20 minutes to allow complexes to form, after which time 1,500 HCT-15 cells in 100 μl RPMI supplemented with 10% FCS were added to the wells. […] Drugs used were Doxorubicin (Sigma, St. Louis Mo.), Paclitaxel (Invitrogen) and Etoposide (Sigma, St. Louis Mo.). At the conclusion of the assay, medium was removed and growth inhibition determined as described above.
# A549 cells = test: Growth inhibition of siRNA-transfected A549 cells, SYBR Green I DNA content; type: cell-based, human
# How it was run: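 A549 cells reverse-transfected with 10 nM Stealth siRNAs via Lipofectamine RNAiMAX, seeded at 5×10^3 cells/cm^2 in RPMI 1640/10% FCS; non-specific siRNA control. DNA content read 96 h post-transfection by SYBR Green I fluorescence (ex 485/em 535 nm) after freeze-thaw and Triton X-100 lysis; mean of three wells.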
# wt HCT-116 cells = test: Growth inhibition of siRNA-transfected wt HCT-116 cells, SYBR Green I DNA content; type: cell-based
# Experimental: (§1) A549 cells (human lung cancer cell line; ATCC No. CCL-185), SK-MeI-5 cells (human melanoma cell line; ATCC No. HTB-70), MCF-7 cells (human adenocarcinoma cell line; ATCC No. HTB-22), HCT-116 cells (colorectal carcinoma; ATCC CCL-247) and HCT-116 p53 null cells (derived from ATCC No. CCL-247; Bunz et al., Science 282:1497-1501, 1998) were cultured in RPMI 1640 medium with 10% v/v heat-inactivated fetal calf serum (FCS). Cells were seeded at a density of 5×10^4 cells/cm^2 in multi-well tissue culture plates. Sequences of Stealth™ siRNA duplexes (Invitrogen) targeting human ribonucleotide reductase subunit 1 (SEQ ID NO: 22) and subunit 2 (SEQ ID NO; 38) are given in SEQ ID NO: 4830-4832 (DNA), and SEQ ID NO: 5136-5138 (RNA) for RRM1, and SEQ ID NO: 5306-5308 (DNA), and SEQ ID NO: 5303-5305 (RNA) for RRM2. siRNAs were transfected at different concentrations into cells using Lipofectamine™ RNAiMAX transfection reagent (Invitrogen). Non-specific siRNA (SEQ ID NO: 4804 and 4805 (DNA), and SEQ ID NO: 5301 and 5302 (RNA)) were used as controls. The cellular DNA content was measured using a SYBR Green I-based fluorometric assay at 24, 48, 72 and 96 hours after transfection (120 hours for the MCF-7 cells), as follows. At the indicated time points following reverse transfection, cells were harvested and frozen at −80° C. overnight. Cells were thawed and cell lysis buffer (phosphate-buffered saline (PBS) containing 1% Triton X-100, pH 7) and SYBR Green I (1:10^5 V/V; Invitrogen) was added to the wells and incubated overnight in the dark at 4° C.
# (§2) The following day, cell lysates were mixed thoroughly, and DNA fluorescence was measured with a Wallac Victor^2 plate reader (Turku, Finland) set at an excitation frequency of 485 nm and measuring emission at 535 nm.
# (§3) To determine the effect of the p53-status of cells on RRM1 and RRM2 knockdown, growth inhibition of wild type (wt) HCT-116 and p53 null HCT-116 cells by RRM1 and RRM2-targeted siRNA were determined. Cells were reverse transfected with 1.0 and 10 nM RRM1-3 (SEQ ID NO: 4832 (DNA), and SEQ ID NO: 5138 (RNA)), 1.0 and 10 nM RRM2-2 (SEQ ID NO: 5307 (DNA), and SEQ ID NO: 5304 (RNA)) or 10 nM control siRNA (SEQ ID NO: 4804 (DNA), and SEQ ID NO: 5301 (RNA)), and growth measured daily for up to 4 days post transfection.
# (§4) siRNA-mediated RNAi was also determined on a panel of different cell lines. A549, SK-MeI-5, wt HCT-116, HCT-116−/−p53 and MCF-7 cells were transfected with 10 nM siRNAs targeting YBX-1 and growth inhibition determined as described above. The YBX1 siRNAs are given in SEQ ID NO: 4981 to 4985 (DNA) and SEQ ID NO: 5276-5280 (RNA). A non-specific siRNA (SEQ ID NO: 4804 (DNA) and SEQ ID NO: 5301 (RNA)) was used as control. Growth inhibition by the siRNAs, given in Table 14, was standardized against the inhibition obtained with the control siRNA.
# HCT-116 and A549 cells were transfected with 0.1, 1.0 and 10 nM siRNA targeting TYMS and DHFR (SEQ ID NO: 4833 to 4838 (DNA), and SEQ ID NO: 5139-5144 (RNA)) using Lipofectamine™ RNAiMAX and incubated for 96 h, in either normal fetal calf serum or serum dialyzed to remove low molecular weight molecules (cut-off 10 kDa). Growth of cells was measured by measuring the total DNA content per well using the SYBR Green assay as described above, and values are given as the percentage of the averaged control values. […] Inhibition increased with increasing siRNA concentration, which was not observed with a non-specific control siRNA. […]
# HCT-116 p53 null cells = test: Growth inhibition of siRNA-transfected p53 null HCT-116 cells, SYBR Green I DNA content; type: cell-based
# Experimental: as §1, §2, §3, §4
# SK-Mel-5 cells = test: Growth inhibition of siRNA-transfected SK-Mel-5 cells, SYBR Green I DNA content; type: cell-based, human; settings: 1 nM p53 siRNA with 1 nM YBX1 siRNA SEQ ID NO: 4982
# Experimental: as §1, §2
# siRNA-mediated inhibition of cancer cell growth using siRNA targeting the YBX1 gene (SEQ ID NO: 92) was determined as follows. SK-MeI-5 cells were cultured in RPMI 1640 medium with 10% v/v heat-inactivated fetal calf serum. Cells were cultured as described above and reverse transfected with 0.1, 1.0, 10 and 40 nM (final concentration) of a pool of YBX1-targeting siRNAs (SEQ ID NO: 4982 and 4983 (DNA), and SEQ ID NO: 5277 and 5278 (RNA); referred to as 994 and 995 in FIG. 19) or a non-specific control (SEQ ID NO: 4804 (DNA), and SEQ ID NO: 5301 (RNA); referred to as Stealth 81 ctrl in FIG. 19), and cell growth determined after 120 h by measuring DNA fluorescence with a Wallac Victor^2 plate reader (Turku, Finland) set at an excitation frequency of 485 nm and measuring emission at 535 nm. Growth inhibition by the siRNA pool was standardized against the inhibition obtained with the control siRNAs.
# as §4
# [2] = 1 nM p53 siRNA with 1 nM YBX1 siRNA SEQ ID NO: 4982
substance,measurement,setting,value
SEQ ID NO: 4976: MDR1-specific siRNA (ABCB1) (chain 1 TTAGCTTCCAACCACGTGTAAATCC; chain 2 UUAGCUUCCAACCACGUGUAAAUCC; chemistry not given here; one strand in two spellings),"mRNA knockdown of transporter gene target transcript, 0.1 nM",[1]; 0.1 nM siRNA,− (<50% mRNA knockdown)
same,"mRNA knockdown of transporter gene target transcript, 1 nM",[1]; 1 nM siRNA,− (<50% mRNA knockdown)
same,"sensitivity to doxorubicin, HCT-15",HCT-15 cells,more sensitive
same,"sensitivity to etoposide, HCT-15",HCT-15 cells,more sensitive
same,"sensitivity to paclitaxel, HCT-15",HCT-15 cells,more sensitive
same,Growth Inhibition in A549 cells by 10 nM siRNA,"A549 cells; A549 cells, 10 nM siRNA, DNA content 96 hours after transfection, transporter gene targets",− (no growth inhibition)
"SEQ ID NO: 4832: Stealth siRNA targeting RRM1 (chain 1 ATTCAAAGATGTCTAAATGCCAAGG; chain 2 AUUCAAAGAUGUCUAAAUGCCAAGG; Stealth siRNA, chemical pattern not given here; one strand in two spellings)","growth inhibition, p53 wt HCT-116","wt HCT-116 cells; 1.0 and 10 nM siRNA, up to 4 days, compared with p53 null",equally growth inhibitory
same,Growth Inhibition in A549 cells,"A549 cells; 10 nM siRNA, DNA content 96 hours after transfection",++ (inhibits by at least 75%)
same,"duration of growth inhibition post-transfection, A549","A549 cells; 1 and 10 nM siRNA, measured daily for up to ten days",at least 10 days
same,"growth inhibition, p53 null HCT-116","HCT-116 p53 null cells; 1.0 and 10 nM siRNA, up to 4 days, compared with p53 wt",equally growth inhibitory
"SEQ ID NO: 5110: p53-targeting Stealth siRNA (chain 1 GCCAAGTCTGTGACTTGCACGTACT; chain 2 GCCAAGUCUGUGACUUGCACGUACU; Stealth siRNA, chemical pattern not given here; one strand in two spellings) [reference compound]","effect of p53 siRNA co-transfection on YBX1 siRNA-mediated growth inhibition, wt HCT-116",wt HCT-116 cells; [2],only partial abrogation of growth inhibition
same,"effect of p53 siRNA co-transfection on YBX1 siRNA-mediated growth inhibition, A549",A549 cells; 5 nM p53 siRNA with 5 nM YBX1 siRNA SEQ ID NO: 4982,only partial abrogation of growth inhibition
same,"effect of p53 siRNA co-transfection on YBX1 siRNA-mediated growth inhibition, SK-MeI-5",SK-Mel-5 cells,completely ablated growth inhibition
same,"effect of p53 siRNA co-transfection on YBX1 siRNA-mediated growth inhibition, HCT-116−/−p53",HCT-116 p53 null cells; [2],only partial abrogation of growth inhibition
